Test results taken from US6610502B1, “Compound 2-amino-3-[2-(α-mannopyranosyl)indol-3-yl]propionic acid, process for preparing the same, and method for inspecting function of living body with the novel compound” (Kyowa Medex Co., Ltd., priority 1997, dated 2003).
Values joined by “and” are separate entries in the source; they are usually repeats but may differ in a detail not shown here. Equal values may be shown once.

Key:
Format in all cases: in vivo, human
[1] = Quantitation of the compound in serum by high performance liquid chromatography (Examples 3, 4); settings: for level in serum: healthy persons, newborns to 90-year-old
Procedure: (§1) Standard solution of 2-amino-3-[2-(α-mannopyranosyl)indole-3-yl]propionic acid obtained in Example 1 above was prepared. Next, 350 μl of the standard solution was added to 500 μl of 0.1N hydrochloric acid containing 1% vitamin C, mixed with 50 μl of 40 μM N-methyl serotonin as an internal standard then 100 μl of 60% perchloric acid, and centrifuged at 3000 rpm at 4° C. The supernatant was filtered through a 0.22 μm filter to obtain a filtrate.
(§2) The filtrate was subjected to high performance liquid chromatography under the following conditions:
Column: Finepak SILC18-T5 (4 mm×25 cm, JASCO Corporation)
Development solvent: Mixed solvent of acetonitrile and buffer (70 mM citric acid: 60 mM disodium phosphate=1;1, v/v, pH3.5)
Detection: Fluorescence, excited at 302 nm, determined at 350 nm
Sera from healthy persons and patients with renal disease were quantitated for the compound of the present invention. First, bloods were collected from the subjects and left to stand at room temperature for 30 minutes for coagulation. Next, the sera were collected by centrifugation at 3000 rpm for 10 minutes and stored at −80° C. until use. Sera from healthy persons (males and females, newborns to 90-year-old persons) were quantitated for the compound of the present invention in the same manner as that of Example 2 except that sera were used instead of the standard solution. […] No difference was detected between ages or between sexes.
Next, sera from patients with renal disease (17 males, average age of 53.9; 13 females, average age of 46.4) were quantitated for the compound of the present invention. […] As shown in this figure, the average value of 856 ng/ml (SD 247) was obtained for samples from male patients while 854 ng/ml (SD 305) for samples from female patients.
(§3) Sera and cerebrospinal fluids from healthy persons and patients with central nervous disease were quantitated for the compound of the present invention. Both sera and cerebrospinal fluids were collected from 22 healthy persons, one patient with spinocerebellar ataxia and one patient with metastatic brain tumor, and quantitated for the compound of the present invention in the sera and the cerebrospinal fluids in the same manner as that of Example 2 except that sera or cerebrospinal fluids were used instead of the standard solution. […] The result of quantitation of the compound in cerebrospinal fluids is shown in FIG. 3 in which ●, □ and Δ show the healthy persons, the patient with spinocerebellar ataxia, and the patient with metastatic brain tumor, respectively. As shown in this figure, the level of the compound in cerebrospinal fluids from healthy persons was determined to be 130.4 ng/ml (SD 29.1). The level of the compound in cerebrospinal fluid from the patient with spinocerebellar ataxia was determined to be 399.4 ng/ml. The level of the compound in cerebrospinal fluid from the patient with metastatic brain tumor was determined to be 822.6 ng/ml.

[2] = Quantitation of the compound in cerebrospinal fluid by high performance liquid chromatography (Example 4)
Procedure: as §1, §2, §3

[3] = GFR assay: the present compound in urine and sera by enzyme immunoassay, clearance (Example 8)
Procedure: (§4) Enzyme immunoassay was performed using the antibody prepared in Example 6. First, 50 μl of 2-amino-3-[2-(α-D-mannopyranosyl)indole-3-yl]propionic acid-BSA conjugate solution (20 μg/ml 0.1M carbonate buffer, pH9.5) was dispensed into a 96-well microtiter plate (NUNC. Corp.) and left to stand at 4° C. overnight. After washing the plate three times with PBS, 250 μl of 1% BSA/PBS solution was dispensed into the plate and left to stand at room temperature for 1 hour. Then, the plate was washed three times with PBS to be used as a reaction plate. Next, 50 μl of a test sample diluted with 0.1M phosphate buffer (pH 7.4) supplemented with varied concentrations of 2-amino-3-[2-(α-D-mannopyranosyl)indole-3-yl]propionic acid/0.1%BSA or 0.1M phosphate buffer supplemented with 0.1% BSA (pH7.4) was dispensed into the reaction plate into which 50 μl of the monoclonal antibody prepared in Example 6 (10 ng/ml, 0.1M phosphate buffer solution supplemented with 0.1% BSA, pH7.4) was added while stirring. The mixture was allowed to react at room temperature for 3 hours. Then, after the reaction was completed, the plate was washed five times with PBS containing 0.05% Tween 20, and then 50 μl of POD labeled-anti-mouse immunoglobulins-rabbit IgG (DAKO) was added to the plate for reaction at room temperature for 1 hour. After the reaction, the plate was washed five times with PBS containing 0.05% Tween 20, added with 50 μl of MCDP/50 mM citrate buffer solution (pH5.0), and the mixture was allowed to react at room temperature for 30 minutes. Finally, 50 μl of a reaction stopper (ethyl diethyldithiocarbamate) was added to the plate, and absorbance was then determined at 660 nm by a microplate reader. The calibration curve is shown in FIG. 5 in which the concentration of 2-amino-3-[2-(α-D-mannopyranosyl)indole-3-yl]propionic acid was indicated as a concentration of single compound.
Eighteen patients with non-renal disease were assayed for the levels of 2-amino-3-[2-(α-mannopyranosyl)indole-3-yl]propionic acid in their urine and sera as described in Example 7. Urine samples stored for 24 hours were used. Volumes of those samples were determined and then partially stored at −80° C. until assay. Upon use, the frozen urine samples were thawed at 37° C. and kept warm. Subsequently, after sufficient stirring and mixing, the samples were centrifuged at 3000 rpm for 10 minutes to remove impurities. The resultant supernatants were used as samples. Serum samples were collected from the patients' blood, left to stand at room temperature for 30 minutes for coagulation, and centrifuged to collect sera which were stored at −80° C. until use.
Clearance View=(level in urine×urine volume)/(24×60×serum level)

[4] = Assay of excreted amount in urine: the present compound by enzyme immunoassay (Example 9); settings: healthy persons
Procedure: as §4
Healthy persons (male and female, from newborn to 90 year-old) were assayed for levels of 2-amino-3-[2-(α-mannopyranosyl)indole-3-yl]propionic acid in their urine as described in Example 7, to evaluate the usefulness of the method of the present invention for measurement of renal functions. Urine samples stored for 24 hours were pooled, their volumes were determined, and then partially stored at −80° C. until use. Upon use, the frozen urine samples were thawed and kept warm at 37° C. Subsequently, after sufficient stirring and mixing, the samples were centrifuged at 3000 rpm for 10 minutes to remove impurities. The resultant supernatants were used as samples. As a comparative example, creatinine levels in the same test samples were assayed.

SMILES: NC(Cc1c([C@H]2O[C@H](CO)[C@@H](O)[C@H](O)[C@@H]2O)[nH]c2ccccc12)C(=O)O (stereo partly drawn) [the present compound, 2-amino-3-[2-(α-mannopyranosyl)indole-3-yl]propionic acid]
- level in serum, average value ([1]; female patients with renal disease (13 females), SD 305): 854 ng/mL
- range of levels in sera from 99% of subjects ([1]; healthy persons (n=50)): 52 to 99 ng/mL
- level in serum ([1]; females, SD 12.6): 74.5 ng/mL
- level in serum ([1]; males, SD 10.3): 76.3 ng/mL
- level in serum, average value ([1]; male patients with renal disease (17 males), SD 247): 856 ng/mL
- range of levels in sera from 99% of subjects ([1]; patients with renal dysfunction (n=30)): 307 to 1403 ng/mL
- level in sera ([1]; sera of Example 4 subjects, SD 13.8): 69.9 ng/mL
- range of levels in cerebrospinal fluids from 99% of subjects ([2]; healthy persons (n=22)): 72 to 188 ng/mL
- level in cerebrospinal fluids ([2]; healthy persons (n=22), SD 29.1): 130.4 ng/mL
- level in cerebrospinal fluid ([2]; one patient with metastatic brain tumor): 822.6 ng/mL
- level in cerebrospinal fluid ([2]; one patient with spinocerebellar ataxia): 399.4 ng/mL
- levels in cerebrospinal fluids ([2]; patients with spinocerebellar ataxia or metastatic brain tumor): ≥ 400 ng/mL
- clearance (ml/min) the present compound ([3]; Average of 18 subjects): 68.40 mL/min
- the present compound in serum ([3]; Average of 18 subjects): 0.24 nmol/mL
- the present compound in urine ([3]; Average of 18 subjects): 14.87 nmol/mL
- the present compound in serum ([3]; individual subjects 1-18, patients with non-renal disease): 0.240 nmol/ml (2×) and 0.193 nmol/ml (3×) and 0.166 nmol/ml and 0.280 nmol/ml and 0.200 nmol/ml and 0.319 nmol/ml (3×) and 0.279 nmol/ml (2×) and 0.186 nmol/ml and 0.309 nmol/ml and 0.213 nmol/ml and 0.226 nmol/ml and 0.159 nmol/ml
- the present compound in urine ([3]; individual subjects 1-18, urine stored for 24 hours): 11.677 nmol/mL and 7.195 nmol/mL and 4.242 nmol/mL and 14.862 nmol/mL and 19.188 nmol/mL and 7.595 nmol/mL and 10.649 nmol/mL and 14.349 nmol/mL and 13.645 nmol/mL and 27.103 nmol/mL and 16.348 nmol/mL and 12.726 nmol/mL and 11.931 nmol/mL and 26.935 nmol/mL and 15.040 nmol/mL and 12.989 nmol/mL and 33.653 nmol/mL and 7.573 nmol/mL
- clearance (ml/min) the present compound ([3]; individual subjects 1-18, (level in urine×urine volume)/(24×60×serum level)): 64.2 mL/min and 54.2 mL/min and 58.1 mL/min and 80.8 mL/min and 64.3 mL/min and 53.0 mL/min and 72.3 mL/min and 60.7 mL/min and 91.7 mL/min and 56.1 mL/min and 89.1 mL/min and 61.9 mL/min and 89.2 mL/min and 77.6 mL/min and 67.7 mL/min and 65.3 mL/min and 52.8 mL/min
- excreted amount in urine, average ([4]; female, age 0-10): 4111 µg/day
- excreted amount in urine, average ([4]; female, age 0-90): 4507 µg/day
- excreted amount in urine, average ([4]; female, age 10-30): 4520 µg/day
- excreted amount in urine, average ([4]; female, age 30-50): 4824 µg/day
- excreted amount in urine, average ([4]; female, age 50-70): 4412 µg/day
- excreted amount in urine, average ([4]; female, age 70-90): 4666 µg/day
- average excretion amount per day ([4]; male and female, all ages): 4.5 mg/day
- excreted amount in urine, average ([4]; male, age 0-10): 4095 µg/day
- excreted amount in urine, average ([4]; male, age 0-90): 4488 µg/day
- excreted amount in urine, average ([4]; male, age 10-30): 4581 µg/day
- excreted amount in urine, average ([4]; male, age 30-50): 4498 µg/day
- excreted amount in urine, average ([4]; male, age 50-70): 4647 µg/day
- excreted amount in urine, average ([4]; male, age 70-90): 4622 µg/day
